Assay results published in patent publication US5656736A, “Compound UCH9” (Kyowa Hakko Kogyo Co., Ltd., priority 1993, dated 1997).
≈ marks a conversion by molar mass, not a printed value. Where a name gives a salt, the structure may show the parent alone.

Tests used:
Solubility = assay type: physicochemical
[1] = test system: Bacillus subtilis No. 10707; experiment: Antibacterial activity, agar dilution method (MIC); assay type: cell-based; conditions: pH 7
Experimental: (§1) The minimum inhibitory concentration (MIC) of the compound obtained in Example 1 against the growth of various bacteria is shown in Table 1.
(§2) The antibacterial activity was determined by the agar dilution method using a medium (pH 7) which comprises 3 g/l Bacto-tryptone (Difco Laboratories),3 g/l meat extract, 1 g/l yeast extract, 1 g/l glucose and 16 g/l agar.

[2] = test system: Enterococcus faecium ATCC 10541; experiment: Antibacterial activity, agar dilution method (MIC); assay type: cell-based; conditions: ATCC10541, pH 7
Experimental: as §1, §2

[3] = test system: Staphylococcus aureus ATCC 6538P; experiment: Antibacterial activity, agar dilution method (MIC); assay type: cell-based; conditions: ATCC6538P, pH 7
Experimental: as §1, §2

[4] = test system: HeLa S3 cells (ATCC HTB22); experiment: Growth inhibition against HeLa S3 cells (Neutral Red staining); assay type: cell-based; conditions: Homo sapiens, 72 hours, 37° C.
Experimental: HeLa S3 cells (ATCC HTB22) were suspended in a medium comprising 10% fetal calf serum, 2 mM glutamine and MEM medium (Nippon Pharmaceutical Co., Ltd.) (hereinafter referred to as medium A) to a concentration of 3×10^4 cells/mi. The cell suspension was put into wells of a 96-well microtiter plate in an amount of 0.1 ml per well. The cells in the plate were cultured at 37° C. for 20 hours in a CO2 -incubator. Subsequently, the test compound obtained in Example 1 which was appropriately diluted with medium A was added to the wells in an amount of 0.1 ml/well. The cells were further cultured at 37° C. for 72 hours in the CO2 -incubator, and then the culture supernatant was removed. To the residue was added a medium comprising medium A and 0.02% Neutral Red in an amount of 0.1 ml per well, followed by culturing at 37° C. for one hour in the CO2 -incubator, whereby the cells were stained. After removal of the culture supernatant, the residue was washed once with physiological saline. The pigment was extracted with 0.001N hydrochloric acid/30% ethanol, and the absorbance at 550 nm was measured by using a microplate reader. The concentration of the test compound at which the growth of the cells is inhibited by 50% (IC50) was calculated by comparing the absorbance of untreated cells with those of the cells treated with the test compound at known concentrations.

SMILES | Solubility (Solubility; chloroform) | Solubility (Solubility; dimethylsulfoxide (DMSO)) | Solubility (Solubility; methanol) | Solubility (Solubility; water) | MIC [1] [µg/mL] | MIC [2] [µg/mL] | MIC [3] [µg/mL] | IC50 [4] [µg/mL]
CCC(C)c1c(OC2CC(O)C(O)C(C)O2)cc2cc3c(c(O)c2c1O)C(=O)C(OC1CC(OC2CC(OC4CC(OC5CC(OC)C(O)C(C)O5)C(O)C(C)O4)C(O)C(C)O2)C(O)C(C)O1)C(C(OC)C(=O)C(O)C(C)O)C3 (centres unmarked) [UCH9·1/2 magnesium salt] | sparingly soluble | Soluble | Soluble | sparingly soluble | – | – | – | –
CCC(C)c1c(OC2CC(O)C(O)C(C)O2)cc2cc3c(c(O)c2c1O)C(=O)C(OC1CC(OC2CC(OC4CC(OC5CC(OC)C(O)C(C)O5)C(O)C(C)O4)C(O)C(C)O2)C(O)C(C)O1)C(C(OC)C(=O)C(O)C(C)O)C3 (centres unmarked) [UCH9] | – | – | – | – | 0.04 (≈ 0.0355 µM) | 41.6 (≈ 36.9 µM) | 5.2 (≈ 4.61 µM) | 0.015 (≈ 0.0133 µM)
